Data published in patent publication US20100075364A1, “METHOD FOR SELECTING MAMMAL TRANSFORMED CELLS” (FOOD AND DRUG SAFETY CENTER, priority 2008, published 2010).

Key:
[1] = system: Bhas 42 cells; experiment: Bhas 42 cell transformation test with MCA, hydrogen peroxide method with dye and Giemsa staining; format: cell-based, mouse; conditions: MCA 0.1, 0.3, 1 μg/mL for 3 days; 0.0015% hydrogen peroxide day 21, alamarBlue or WST-8
Method: A basic experiment was carried out as follows. In a Bhas 42 cell transformation test using a 96-well plate (0.1 mL of medium/well), 0.05 mL of a medium containing hydrogen peroxide (in a concentration 3 times higher than the final concentration) was added on the 21st day after cell inoculation. 1 to 24 hours later, 0.05 mL of a medium containing alamarBlue or WST-8 (0.01 mL of dye+0.04 mL of medium) was added.
Whether or not the transformation of Bhas 42 cells could be quantified with a dye was analyzed using MCA. The cells were inoculated (200 cells/0.05 mL of medium/well), and on the following day, 0.05 mL of a medium containing MCA (0.2, 0.6, and 2 μg/mL: all of which were 2 times higher than the final concentrations that were 0.1, 0.3, and 1 μg/mL, respectively) was added thereto. The cells were treated for 3 days, and a medium containing hydrogen peroxide (0.0045%: 3 times higher than the final concentration that was 0.0015%) was added thereto on the 21st day after cell inoculation. 24 hours later, a dye was added, and measurement was then carried out. Thereafter, 0.02 mL of glutaraldehyde (2.5%: approximately 10 times higher than the final concentration that was 0.25%) was further added, and the resultant cells were then left for 30 minutes or more for fixation. Thereafter, the cells were washed with water and were then subjected to Giemsa staining.

[2] = system: Bhas 42 cells; experiment: Selection of Bhas 42 transformed cells by BP treatment and light irradiation; format: cell-based, mouse; conditions: BP 20 ng/mL + light irradiation 2 J/cm^2 (UVA), observed 24 hours later
Method: Whether or not transformed cells can be selected using active oxygens other than hydrogen peroxide was analyzed. Since such active oxygens other than hydrogen peroxide are extremely unstable and have a short life time, they cannot be used as reagents. Accordingly, benzo(a)pyrene (BP) for generating superoxide anion radical as a result of light irradiation was utilized. Transformed foci were induced in Bhas 42 cells (by the method of Example 1), and the medium was then exchanged with a phosphate buffered saline (2 mL/well). […] Using a sunlight simulator, light was applied to the cells (300 to 800 nm; UVA irradiation intensity: 5.6 mW/cm^2; irradiation time: 6 minutes; irradiation dose: 2 J/cm^2), and the medium was then exchanged. Twenty-four hours later, the resultant cells were observed.

[3] = system: Hu-MI cells and human cancer cells (A549, FLC-5, HCT 116, MKN28); conditions: 0.003% final, 24 hours, day 14
Method: Whether or not human transformed cells can also be selected by treatment with hydrogen peroxide was analyzed. […] An experimental system was prepared, such that a large number of Hu-MI cells and a small number of human cancer cells (A549 cells: lung cancer; FLC-5 cells: liver cancer; HCT 116 cells: colon cancer; and MKN28 cells: stomach cancer) were simultaneously inoculated and such that they were co-cultured.
The Hu-MI cells (10^4 cells/well) and various types of cancer cells (500 cells/well for FLC-5 cells; and 100 cells/well for other cells) were each inoculated on a 6-well plate (2 mL of medium/well). On the 14th day after the inoculation, 0.2 mL of medium containing hydrogen peroxide (0.033%: 11 times higher than the final concentration that was 0.003%) was added thereto, and the cells were then observed 24 hours after the addition of hydrogen peroxide. As a medium, MEM+10% fetal bovine serum was used.

[4] = system: Bhas 42 cells; conditions: depending on concentration and treatment time (1 to 24 hours)
Method: 1 to 24 hours later, 0.05 mL of a medium containing alamarBlue or WST-8 (0.01 mL of dye+0.04 mL of medium) was added. Three hours after the addition of the aforementioned medium, a fluorescence level (excitation: 530 nm; measurement: 590 nm) or absorbance (450 nm) was measured (FIG. 2).
In order to find conditions under which normal cells are killed but transformed cells survive, an experiment was carried out to obtain an appropriate concentration of hydrogen peroxide and an appropriate treatment time.

[5] = system: mouse lung tumor cells; conditions: 0.015% final, 24 hours, lung tumor slices
Method: Whether or not the transformed cells can be selected even in vivo was analyzed. The following experiment was carried out using rasH2 mice (human c-Ha-ras gene-introduced mice; female; 6-week-old). N-ethyl-N-nitrosourea used as an initiator was intraperitoneally administered to each mouse (120 mg/kg/10 mL of physiological saline). From 1 week after the administration of N-ethyl-N-nirosourea, butylhydroxytoluene used as a promoter was orally administered once a week, repeatedly for 7 weeks (400 mg/kg/10 mL of corn oil). Thereafter, the mouse was further bred for 2 weeks. […] The medium was left at rest in a CO2 incubator (5% CO2, 37° C.) for 24 hours, and the sample was then stained with a trypan blue solution (prepared by adding 0.002% trypan blue to phosphate buffered saline) for 10 minutes. It is to be noted that trypan blue is not incorporated into living cells but is incorporated into dead cells, and that it stains the cells blue.

[6] = system: Bhas 42 cells; conditions: 0.0015% final, 24 hours
Method: In order to observe the morphology of a transformed focus and the morphology of normal cells existing around the transformed focus before and after a treatment with hydrogen peroxide, the following experiment was carried out using 3-methylcholanthrene (MCA) as an initiator. […] Thereafter, 0.2 mL of a medium containing hydrogen peroxide (0.0165%: 11 times higher than the final concentration that was 0.0015%) was added, and the transformed focus was then observed 24 hours after the addition of hydrogen peroxide.

In the case of `Cc1ccc2cc3c(ccc4ccccc43)c3c2c1CC3` [MCA, 3-methylcholanthrene], the “transformed foci and fluorescence level or absorbance” value [1] is reported as “increased depending on the dosage”.

With `c1ccc2c(c1)cc1ccc3cccc4ccc2c1c34` [BP, benzo(a)pyrene] the “selection of the transformed cells” value [2] was “observed only in the case of a BP treatment+light irradiation group”.

For `OO` [hydrogen peroxide], the “fate of Hu-MI cells (considered normal cells)” value [3] was “died and were thereby removed”, the “fate of human cancer cells (A549, FLC-5, HCT 116, MKN28)” value [3] was “remained in the state of colonies and survived” and the “effect on normal cells versus transformed focus wells, absorbance of WST-8 as indicator” value [4] was “specifically destroys normal cells”. For the same compound, the “trypan blue staining (dead cells) of tumor and non-tumor portion” value [5] was “only the non-tumor portion was stained blue”, the “morphology of normal cells around the transformed focus after addition of hydrogen peroxide” value ([6]; day 21) was “cytoplasm was denatured” and the “morphology of the transformed focus after addition of hydrogen peroxide” value ([6]; day 21, foci induced by 1 μg/mL MCA) was “not changed”.
